One series deals with NaV1.6 (Homo sapiens (Human), UniProt Q9UQD0). Put plainly: Sodium Influx Assay (Flux), NaV1.6.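 Further: Tetracycline-induced cells, compounds applied for one hour at room temperature with modulators holding channels open, IC50 from percent inhibition of sodium influx.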 The class given is cell-based. The note with it: Trex HEK293 cells, ANG2 dye, inactivated state.
A further series has as its target NaV1.1 (Homo sapiens (Human), UniProt P35498). Put plainly: Sodium Influx Assay (Flux), NaV1.1.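 Further: channels co-expressed with human β1 subunit and held open by modulators, cells exposed to compounds for one hour at room temperature, IC50 from percent inhibition of influx.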 It counts as cell-based. Conditions: Trex HEK293 cells, ANG2 dye, inactivated state.
The target of a further series is NaV1.5 (Homo sapiens (Human), UniProt Q14524). The experiment in a line: Sodium Influx Assay (Flux), NaV1.5. Conditions: read-out: Flux NaV1.5 IC50; Trex HEK293 cells, ANG2 dye, inactivated state.
Chain of NaV1.5 (Q14524 other isoform, or with tags, fused parts or gaps): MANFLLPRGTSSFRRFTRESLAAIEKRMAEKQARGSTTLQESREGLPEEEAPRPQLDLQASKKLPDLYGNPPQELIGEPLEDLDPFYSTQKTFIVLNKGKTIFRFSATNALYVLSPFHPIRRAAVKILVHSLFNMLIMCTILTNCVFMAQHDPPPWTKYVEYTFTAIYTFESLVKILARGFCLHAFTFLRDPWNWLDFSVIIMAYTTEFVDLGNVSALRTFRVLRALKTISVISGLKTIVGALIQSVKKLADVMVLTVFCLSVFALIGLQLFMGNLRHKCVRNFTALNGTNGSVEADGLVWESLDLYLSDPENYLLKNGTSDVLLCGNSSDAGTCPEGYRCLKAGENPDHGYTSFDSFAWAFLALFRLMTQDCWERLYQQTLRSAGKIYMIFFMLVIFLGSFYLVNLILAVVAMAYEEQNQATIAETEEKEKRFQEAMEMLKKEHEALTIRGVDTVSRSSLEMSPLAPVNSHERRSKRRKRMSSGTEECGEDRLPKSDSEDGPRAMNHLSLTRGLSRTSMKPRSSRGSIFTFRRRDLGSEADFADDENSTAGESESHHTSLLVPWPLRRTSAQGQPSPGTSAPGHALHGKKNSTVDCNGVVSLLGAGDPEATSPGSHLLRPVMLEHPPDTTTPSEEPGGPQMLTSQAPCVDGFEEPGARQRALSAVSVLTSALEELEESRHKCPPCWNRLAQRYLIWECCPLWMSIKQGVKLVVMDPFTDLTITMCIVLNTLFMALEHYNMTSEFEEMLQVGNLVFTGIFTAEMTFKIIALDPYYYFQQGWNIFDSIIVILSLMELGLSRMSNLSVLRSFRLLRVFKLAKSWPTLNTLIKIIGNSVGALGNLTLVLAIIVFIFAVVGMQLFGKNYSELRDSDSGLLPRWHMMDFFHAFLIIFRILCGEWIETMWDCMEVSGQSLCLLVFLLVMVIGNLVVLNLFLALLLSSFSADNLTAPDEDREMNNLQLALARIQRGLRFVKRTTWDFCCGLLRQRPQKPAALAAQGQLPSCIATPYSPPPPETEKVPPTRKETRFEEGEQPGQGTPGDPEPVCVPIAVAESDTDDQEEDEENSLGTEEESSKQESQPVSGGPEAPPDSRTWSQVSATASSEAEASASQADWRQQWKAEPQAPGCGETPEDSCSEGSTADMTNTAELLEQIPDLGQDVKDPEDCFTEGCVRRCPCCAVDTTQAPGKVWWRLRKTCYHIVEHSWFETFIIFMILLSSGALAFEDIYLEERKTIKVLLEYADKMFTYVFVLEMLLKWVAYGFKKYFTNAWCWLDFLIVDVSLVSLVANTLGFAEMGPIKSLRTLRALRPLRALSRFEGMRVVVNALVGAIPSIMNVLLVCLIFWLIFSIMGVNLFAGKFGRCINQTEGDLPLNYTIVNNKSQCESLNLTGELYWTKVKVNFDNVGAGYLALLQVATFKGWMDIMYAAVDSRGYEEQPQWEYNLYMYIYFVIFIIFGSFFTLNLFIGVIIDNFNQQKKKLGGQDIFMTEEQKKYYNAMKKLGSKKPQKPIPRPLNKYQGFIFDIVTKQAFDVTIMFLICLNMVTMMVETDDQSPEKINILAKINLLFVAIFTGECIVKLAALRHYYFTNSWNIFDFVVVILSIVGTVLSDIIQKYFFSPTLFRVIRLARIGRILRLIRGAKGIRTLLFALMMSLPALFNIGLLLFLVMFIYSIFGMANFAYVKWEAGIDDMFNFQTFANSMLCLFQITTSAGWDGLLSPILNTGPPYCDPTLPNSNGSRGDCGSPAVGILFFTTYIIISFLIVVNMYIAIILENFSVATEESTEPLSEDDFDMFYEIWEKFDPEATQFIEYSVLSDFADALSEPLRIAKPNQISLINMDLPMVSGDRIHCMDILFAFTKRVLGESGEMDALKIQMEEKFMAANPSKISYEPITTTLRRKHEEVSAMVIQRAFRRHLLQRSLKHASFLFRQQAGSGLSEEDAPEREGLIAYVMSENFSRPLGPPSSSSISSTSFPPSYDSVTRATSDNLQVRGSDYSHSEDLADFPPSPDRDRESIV

Among the data in patent US11174268B2, “Benzenesulfonamide compouds and their use as therapeutic agents” (Xenon Pharmaceuticals Inc., priority 2016, dated 2021) are IC50 values, retold here.

Each structure is given as a SMILES string. pIC50: −log10 of the molar value. Structures can show the parent of a compound that is named as a salt.

A word on the pIC50: it is the IC50 on a negative log10 scale, so that one unit is a factor of ten. `CN(Cc1cccc(F)c1CNc1cc(F)c(S(=O)(=O)Nc2ccsn2)c(F)c1)C(C)(C)C` [Example 189, 4-((2-((tert-butyl(methyl)amino)methyl)-6-fluorobenzyl)amino)-2,6-difluoro-N-(isothiazol-3-yl)benzenesulfonamide formate]: the pIC50 on NaV1.6 was 6.28; against NaV1.1, 4.52; at NaV1.5 it was 4.52.
As to `O=S(=O)(Nc1cscn1)c1cc(Cl)c(NCc2cc(F)c(F)cc2CN2CCC2)cc1F` [Example 193, 4-((2-(azetidin-1-ylmethyl)-4,5-difluorobenzyl)amino)-5-chloro-2-fluoro-N-(thiazol-4-yl)benzenesulfonamide formate], the pIC50 is 5.13 at NaV1.6, 5.05 against NaV1.1 and 4.57 on NaV1.5.
For `O=S(=O)(Nc1cscn1)c1c(F)cc(NCc2cc(CN3CCC3)ccc2F)cc1F` [Example 195, 4-((5-(azetidin-1-ylmethyl)-2-fluorobenzyl)amino)-2,6-difluoro-N-(thiazol-4-yl)benzenesulfonamide formate] the same measures were 6.16, 4.57 and 4.52.
Taken in the same sequence, the figures for `O=S(=O)(Nc1cscn1)c1c(F)cc(NCc2cccc(F)c2CN2CCC2)cc1F` [Example 196, 4-((2-(azetidin-1-ylmethyl)-3-fluorobenzyl)amino)-2,6-difluoro-N-(thiazol-4-yl)benzenesulfonamide 2,2,2-trifluoroacetate] were 6.73, 4.59 and 4.52.
With `O=S(=O)(Nc1cscn1)c1c(F)cc(NCc2cccc(F)c2CN2CCC2)c(Cl)c1F` [Example 197, 4-((2-(azetidin-1-ylmethyl)-3-fluorobenzyl)amino)-3-chloro-2,6-difluoro-N-(thiazol-4-yl)benzenesulfonamide 2,2,2-trifluoroacetate], the pIC50 against NaV1.6 was 7.64; on NaV1.1, 4.92; on NaV1.5 it was 4.56.
In the case of `CC1(C)CCN1Cc1cccc(Cl)c1CNc1cc(F)c(S(=O)(=O)Nc2cscn2)c(F)c1` [Example 199, 4-((2-chloro-6-((2,2-dimethylazetidin-1-yl)methyl)benzyl)amino)-2,6-difluoro-N-(thiazol-4-yl)benzenesulfonamide formate], the pIC50 is 6.67 at NaV1.6, 5.39 on NaV1.1 and 4.52 on NaV1.5.
Consider `O=S(=O)(Nc1cccc(F)n1)c1cc(Cl)c(NCc2ccccc2CN2CCC2)cc1F` [Example 200, 4-((2-(azetidin-1-ylmethyl)benzyl)amino)-5-chloro-2-fluoro-N-(6-fluoropyridin-2-yl)benzenesulfonamide], for which the pIC50 was 6.30 against NaV1.6, 5.35 against NaV1.1 and 4.81 at NaV1.5.
Consider `CC(C)N(C)Cc1cccc(F)c1CNc1cc(F)c(S(=O)(=O)Nc2ccon2)c(F)c1` [Example 201, 2,6-difluoro-4-((2-fluoro-6-((isopropyl(methyl)amino)methyl)benzyl)amino)-N-(isoxazol-3-yl)benzenesulfonamide 2,2,2-trifluoroacetate], for which the pIC50 was 6.25 on NaV1.6, 4.52 on NaV1.1 and 4.52 at NaV1.5.
Turning to `CN(Cc1ccccc1CNc1cc(F)c(S(=O)(=O)Nc2cscn2)c(F)c1)C(C)(C)C` [Example 202, 4-((2-((tert-butyl(methyl)amino)methyl)benzyl)amino)-2,6-difluoro-N-(thiazol-4-yl)benzenesulfonamide 2,2,2-trifluoroacetate], the pIC50 against NaV1.6 is 6.27; at NaV1.1, 4.52; at NaV1.5 it was 4.52.
With `CN(Cc1cccc(F)c1CNc1ccc(S(=O)(=O)Nc2cscn2)c(F)c1F)C(C)(C)C` [Example 203, 4-((2-((tert-butyl(methyl)amino)methyl)-6-fluorobenzyl)amino)-2,3-difluoro-N-(thiazol-4-yl)benzenesulfonamide 2,2,2-trifluoroacetate], the pIC50 is 6.65 against NaV1.6, 4.58 at NaV1.1 and 4.55 on NaV1.5.
